Measured values published in the NIST ThermoML archive (doi:10.1021/acs.jced.9b00415).

Conditions: for viscosity / mass density: 102 kPa, Liquid; for viscosity: Concentric cylinders viscometry; for mass density: Vibrating tube method

CCCCn1cc[n+](C)c1.[Cl-] [1-butyl-3-methylimidazolium chloride]
Conditions	mass density [kg/m3]	viscosity [mPa·s]
343.15 K	1057.5	256.7
348.15 K	1054.8	189.4
353.15 K	1052	142.7
358.15 K	1049.3	109.6
363.15 K	1046.5	85.65

DSC
Conditions	Glass transition temperature [°C]	Triple point temperature [K]
Crystal	–	342
Glass	-42	–

CCCCn1cc[n+](C)c1.CS(=O)(=O)[O-] [1-butyl-3-methylimidazolium methanesulfonate]
Conditions	mass density [kg/m3]	viscosity [mPa·s]
348.15 K	1139.4	36.51
353.15 K	1136.3	30.57
358.15 K	1133.1	25.89
363.15 K	1130	22.16

Conditions	Triple point temperature [K]
Crystal, DSC	348

CCCCn1cc[n+](C)c1.O=[N+]([O-])[O-] [1-butyl-3-methylimidazolium nitrate]
Conditions	Triple point temperature [K]	mass density [kg/m3]	viscosity [mPa·s]
303.15 K	–	1151.9	148.1
308.15 K	–	1148.7	112.9
313.15 K	–	1145.5	87.87
318.15 K	–	1142.3	69.65
323.15 K	–	1139.2	56.17
328.15 K	–	1136.1	45.97
333.15 K	–	1133.1	38.11
338.15 K	–	1130	32.05
343.15 K	–	1127	27.29
348.15 K	–	1123.9	23.4
353.15 K	–	1120.9	20.29
358.15 K	–	1117.9	17.73
363.15 K	–	1115	15.61
Crystal 1, DSC	308	–	–
Crystal 4, DSC	279	–	–
